# Reference: ChEMBL document CHEMBL3046662, “Hypoglycemic and insulin mimetic impact of catechin isolated from Cassia fistula: a substantiate in silico approach through docking analysis” (Med Chem Res, 2012)
# Active and inactive are the calls of the source. The calls are words filed in the database; no cut-off is given here.
# System: Rattus norvegicus
# Assay: Hypoglycemic activity in Rattus norvegicus albino Wistar (rat) streptozotocin-induced diabetic model assessed as reduction of plasma glucose level at 20 mg/kg, po qd for 60 days measured up to 180 min by oral glucose tolerance test
# Type: functional, organism-based
# Parameters: dose 20 mg/kg
smiles,measurement,value
Oc1cc(O)c2c(c1)OC(c1ccc(O)c(O)c1)C(O)C2 (stereo unspecified),Activity,Active
